Measurements taken from patent US20250381269A1, “BISPECIFIC ANTIBODY BINDING EGFR AND B7-H3” (FORTVITA BIOLOGICS (SINGAPORE) PTE. LTD., priority 2022, published 2025).

How the values were obtained:
[1] = tested on: H292; experiment: ADCC report assay, H292; assay type: cell-based; conditions: EGFR WT, KRAS WT, effector/target 10:1, 20 h
Description: (§1) In the ADCC report assay, ADCC effector cells ((Promega, G7102)) are engineered cells in which FcRIIIa (V158) receptor is overexpressed into Jurkat T cells, which rapidly respond to ADCC through the NFAT-RE driving element within the Jurkat T cells.
(§2) • (1) Tumor cells (cell lines listed in Table 3) and ADCC effector cells (Promega, G7102) were mixed well (1.5E4 cells: 1.5E5 cells/well/100 μL (1.5E5: 1.5E6 cells/mL)) according to an effector/target ratio (10:1), and added to a 96-well white plate (NUNC, 136101). • (2) The antibody molecules prepared in advance by dilution were added to the corresponding cell well plates, mixed well, and cultured at 37° C. with 5% CO2 for 20 h. • (3) The Bio-glo reagent (Promega, G755B) prepared in advance was added to the cell well plate, the plate was left to stand at room temperature for 10-15 min in the dark, and then the cells were detected by a multimode microplate reader (Molecular Devices, Spectra MAXi3).

[2] = tested on: H322; experiment: ADCC report assay, H322; assay type: cell-based; conditions: EGFR WT, KRAS WT, effector/target 10:1, 20 h
Description: as §1, §2

[3] = tested on: SK-MES-1 tumor-bearing mice; experiment: Anti-tumor efficacy in SK-MES-1 tumor-bearing mice, 1 mg/kg single dose; assay type: in vivo; conditions: SK-MES-1, Balb/c Nude mice, day 24; for Tumor volume (mm^3): 1 mg/kg i.p. single dose on day 6; for Complete response rate / Tumor growth inhibition (%): 1 mg/kg i.p. single dose; for Complete response rate: 7 mice per group; for Tumor growth inhibition (%): vs h-IgG 1 mg/kg
Description: SPF female Balb/c Nude mice (purchased from Beijing Vital River Laboratory Animal Technology Co., Ltd.) with certificate No. 110011211108966881 were used in the experiment.
(§3) SK-MES-1 cells were routinely subcultured for the subsequent in-vivo experiment. The cells were collected by centrifugation. Then the SK-MES-1 cells were resuspended in an equal-proportion mixture of PBS (1×) and Matrigel Matrix (Corning) to prepare a cell suspension with a cell concentration of 20×10^6 cells/mL. On day 0, 0.2 mL of the cell suspension was taken and subcutaneously inoculated to the right abdominal area of Balb/c Nude mice to establish SK-MES-1 tumor-bearing mouse models.
(§4) Six days after the tumor cell inoculation, the tumor volume in each mouse was measured. The mice were grouped (with 7 mice in each group).
Administration was performed once on day 6 after the inoculation of SK-MES-1 cells. Mice were monitored for tumor volume and body weight twice a week.
(§5) Tumor volume measurement: The maximum length of major axis (L) and maximum length of minor axis (W) of tumors were measured with a vernier caliper, and tumor volume was calculated by the following formula: V=L×W^2/2. The mice were weighed using an electronic balance.

[4] = tested on: H1703; experiment: Proliferation inhibition experiment, H1703 (NSCLC); assay type: cell-based; conditions: H1703, EGFR Amplification, KRAS WT
Description: (§6) • (1) NSCLC: plated at 1500-2500 cells/100 μL in a 96-well low-adsorption plate (Corning, CLS7007-24EA) for 3D cell culture, in which the following cell lines and specific amounts were used: • NSCLC: 2000 cells/100 μL/well • NCI-H292: Cell Bank of the Chinese Academy of Sciences, SCSP-582 • NCI-H322: Cobioer, CBP60134 • NCI-H1650: ATCC, CRL-5883 • NCI-H1975: ATCC, CRL-5908 • SK-MES-1: CoBioer, CBP60152 • NCI-H1703: ATCC, HTB-43 • PC9+hB7H3: constructed as described above • CRC and HNSCC: plated at 1500-2000 cells/100 μL in a 96-well white-bottom plate (NUNC, 136101) for 2D cell culture, in which the following cell lines and specific amounts were used: • CRC: 1500 cells/100 μL/well • CCK-81: CoBioer, CBP60581 • HT-55: CoBioer, CBP60012 • H508: CoBioer, CBP60795 • LS180: CoBioer, CBP60034 • HNSCC: 1500 cells/100 μL/well • TE-1: CoBioer, CBP60655 • Colo680: CoBioer, CBP60452. (2) The antibody molecules prepared in advance by dilution were added to the corresponding cell well plate, mixed well, and cultured in an incubator at 37° C. with 5% CO2 for 5 days. • (3) After 5 days of continuous culture for proliferation inhibition assay, the Cell-Titer reagent (Promega, G7572) prepared in advance was added to cell wells, the plate was left to stand at room temperature for 15-25 min in the dark, and then CRC and HNSCC cells were directly detected by a multimode microplate reader (Molecular Devices, Spectra MAXi3). • (4) NSCLC: Cell-Titer and the cell mixture were transferred to a 96-well white-bottom plate (NUNC, 136101) and detected by a multimode microplate reader (Molecular Devices, Spectra MAXi3).

[5] = tested on: H1650; experiment: ADCC report assay, H1650; assay type: cell-based; conditions: EGFR Amplification Del19, KRAS WT, effector/target 10:1, 20 h
Description: as §1, §2

[6] = tested on: NCI-H358 tumor-bearing mice; experiment: Anti-tumor efficacy in NCI-H358 tumor-bearing mice, combination with AMG510; assay type: in vivo, NOG mice; conditions: NCI-H358, NOG mice, day 33; for Tumor volume (mm^3): antibodies 10 mg/kg i.p. Q3-4D x4 (h-IgG 20 mg/kg), AMG510 10 mg/kg intragastric QD x14; for Tumor growth inhibition (%): antibodies 10 mg/kg i.p. Q3-4D x4, AMG510 10 mg/kg intragastric QD x14, vs h-IgG 20 mg/kg
Description: SPF female NOG mice (purchased from Beijing Vital River Laboratory Animal Technology Co., Ltd.) with certificate No. 1100112211001153625 were used in the experiment.
as §3, with “NCI-H358” for “SK-MES-1”, “25×10^6” for “20×10^6”, “NOG” for “Balb/c Nude”
as §4
Administration was performed on days 6, 9, 12, and 15 after the inoculation of NCI-H358 cells. Mice were monitored for tumor volume and body weight twice a week. […] Mice were monitored for tumor volume twice a week, and were monitored for body weight every day during the administration, and twice a week after the end of administration. […] On day 33 after the inoculation, the relative tumor growth inhibition (TG1%) was calculated by the following formula: TG1%=100%×(control group tumor volume−treatment group tumor volume)/(control group tumor volume−control group tumor volume before administration).
as §5

[7] = tested on: H1650; experiment: Proliferation inhibition experiment, H1650 (NSCLC); assay type: cell-based; conditions: EGFR Amplification Del19, KRAS WT
Description: as §6

[8] = tested on: H358; experiment: ADCC report assay, H358; assay type: cell-based; conditions: EGFR WT, KRAS G12C, effector/target 10:1, 20 h
Description: as §1, §2

[9] = tested on: H1975; experiment: Proliferation inhibition experiment, H1975 (NSCLC); assay type: cell-based; conditions: EGFR L858R T790M, KRAS WT
Description: as §6

Row | Substance | EC50 [1] [nM] | EC50 [2] [nM] | Tumor volume (mm^3) [3] [mm^3] | Complete response rate [3] | Tumor growth inhibition (%) [3] [%] | Max inhibition (%) Mean ± SD [4] [%] | IC50 ([4]; 3D culture, 5 days) [nM] | EC50 [5] [nM] | Tumor volume (mm^3) [6] [mm^3] | Tumor growth inhibition (%) [6] [%] | Max inhibition (%) Mean ± SD [7] [%] | IC50 ([7]; 3D culture, 5 days) [nM] | EC50 [8] [nM] | Max inhibition (%) Mean ± SD [9] [%] | IC50 ([9]; 3D culture, 5 days) [nM]
1 | amivantamab [JNJ372] | 0.083 | 0.106 | 87 | 0/7 | 122 | 44.3 ± 3.4 | 0.7 | 0.102 | 196 | 82 | 31.0 ± 1.4 | 20.6 | 0.018 | 47.9 ± 3.0 | 5.67
2 | zalutumumab [Zalu mAb] | 0.009 | 0.006 | 23 | 2/7 | 145 | 45.6 ± 3.8 |  | 0.021 | 126 | 111 | 26.8 ± 2.6 |  | 0.004 | 51.0 ± 2.3 | 
